Source: US8859781B2, “No-releasing nonoate(nitrogen-bound)sulfonamide-linked-coxib anti-cancer agents” (Euclises Pharmaceuticals, Inc., priority 2012, dated 2014)

Test system: PGE2 levels in exudate (carrageenan-challenged air pouch)
Test: Air pouch assay of acute inflammation measuring exudate volume and PGE2 levels in exudate in rats
Type: in vivo, Sprague-Dawley rats
Settings: rat air pouch; for PGE2 (pg/mL), mean in exudate / Volume (mL), mean collected exudate volume: 0.01 mmol/kg oral 2 h before 1% carrageenan, exudate 4 h after carrageenan, group mean, 5 rats/group; for PGE2 (pg/mL), mean in exudate: ELISA; for effect on the carrageenan-induced increase in PGE2 release / effect on the carrageenan-induced increase in exudate volume / reduction in collected exudate volume / reduction in exudate PGE2 release: 0.01 mmol/kg oral pretreatment; for effect on the carrageenan-induced increase in PGE2 release / effect on the carrageenan-induced increase in exudate volume: result in words; for reduction in collected exudate volume / reduction in exudate PGE2 release: vs vehicle
Method: Compound Testing in the Air Pouch Assay of Acute Inflammation Measuring PGE2 Levels in Exudate in Rats
Animals: Sprague-Dawley rats (Charles River Laboratories., R #3234, PO #738990, male, 160-180 g) were received, individually examined, and housed in cages of five rats each. The rats were ear notched for identification purposes.
Compounds and Dosing Solutions: The vehicle was prepared by dissolving 40 g (2-hydroxypropyl)-β-cyclodextrin (HP-β-CD, Sigma, Cat. 332593, lot MKBJ5858V) in 160 mL sterile saline for injection, USP (Hospira, lot 26-801-FW) making a 25% solution which was filter sterilized (0.2 μm, Nalgene, Cat. 151-4020, lot 1095610). A 1% carrageenan solution was prepared by dissolving […] (Fluka, Cat. 22049, lot 1318338) in hot 60 mL sterile saline for injection, USP. This solution was stored at 4-8° C. Test compounds were dissolved in DMSO (Fisher Scientific, Cat. D128-500, lot 874999) to make 75 mM stocks. 0.25 mL of compound DMSO stocks were mixed with 12.5 mL of HP-13-CD solution at 50° C. (maximum DMSO concentration was 2% of the final volume of vehicle,). Final concentration of all test compounds was 1.5 mM and compounds were dosed within 2 hours of preparation at 0.01 mmol/kg (12 […] of test compound per rat).
Day 0—Air Pouch Initiation: The rats were anesthetized in a biological cabinet, the nape of the neck was cleansed with 70% isopropanol (Butler Schein Animal Health, Cat. 002498, lot 29EMS07104547) followed by 1% povidone-iodine solution (Ricca Chemical Co., Cat. 3955-16, lot 2205469). Twenty mL of sterile (0.22 μm, Millipore, Cat. SLGP033RS, lot R2KA55925, exp August 2015) air was injected subcutaneously (SC) using a 23G×1½ inch needle fixed to a 20 mL syringe. The rats were returned to routine housing. No adverse reactions were observed.
Day 3—Air Pouch Maintenance: The rats were anesthetized in a biological cabinet, the nape of the neck was cleansed with 70% isopropanol followed by 1% povidone-iodine solution. Ten mL of sterile air was injected SC using a 23G×1½ inch needle fixed to a 20 mL syringe. The rats were returned to routine housing in clean cages. No adverse reactions were observed.
Day 6—Compound Administration and Carrageenan Insult: At commencement of the study, each rat was weighed and sorted into treatment groups of 5 rats/group based upon average weight. Each rat was dosed orally via gavage at 6.809 mL/kg (1.6 mL/235 g) with their respective test material/vehicle. Two hours after test material/vehicle administration, the rats were injected with 1.0 mL of the room temperature 1% carrageenan saline solution into the air pouch. Four hours after carrageenan injection, the rats were anesthetized and 5 mL of the exudate buffer was injected into the air pouch. The pouch was gently massaged, the exudate immediately removed, and exudate volume recorded. The exudate was collected in a serum separator tube on an ice bath. The exudates were centrifuged (refrigerated) and an aliquot of the supernatant was stored in a labeled Eppendorf tube at −80° C.
Termination of Study: Animals were euthanized via CO2 asphyxiation at the completion of the in-life portion of this study and carcasses were disposed of according to standard protocols.
Data Analysis: The exudate samples were thawed to room temperature and assayed by ELISA for PGE2 (R&D Systems, Cat. KGE004B, lot 307711). Statistical significance of treatments on mean exudate volumes are determined by comparison of means for treatment groups with vehicle group. Mean cytokine concentrations and standard deviations are determined for each group. Statistical significance of treatments on cytokine concentrations are determined for each compound group compared to vehicle group. Statistical significance (p-value) was calculated vs control groups by Student's t-Test.

SMILES | PGE2 (pg/mL), mean in exudate | Volume (mL), mean collected exudate volume | effect on the carrageenan-induced increase in PGE2 release | effect on the carrageenan-induced increase in exudate volume | reduction in collected exudate volume | reduction in exudate PGE2 release
CN(CCO)/[N+]([O-])=N/OCOC(=O)C(C)(C)C [Compound N402, (Z)-3-(2-Hydroxyethyl)-3-methyl-1-((pivaloyloxy)methoxy)triaz-1-ene 2-oxide] | 3782.4 pg/mL | 5.4 mL | did not show any effect | did not show any effect | – | –
Cc1ccc(-c2cc(C(F)(F)F)nn2-c2ccc(S(=O)(=O)NC(=O)CN(C)/[N+]([O-])=N/OCOC(=O)C(C)(C)C)cc2)cc1 [Compound 602, (Z)-3-Methyl-3-(2-oxo-2-(4-(5-(p-tolyl)-3-(trifluoromethyl)-1H-pyrazol-1-yl)phenylsulfonamido)ethyl)-1-((pivaloyloxy)methoxy)triaz-1-ene 2-oxide] | 1915.2 pg/mL | 4.5 mL | – | – | 20% | 56%
Cc1ccc(-c2cc(C(F)(F)F)nn2-c2ccc(S(=O)(=O)NC(=O)OCCN(C)/[N+]([O-])=N/OCOC(=O)C(C)(C)C)cc2)cc1 [Compound 202, (Z)-5,12,12-Trimethyl-1,11-dioxo-1-(4-(5-(p-tolyl)-3-(trifluoromethyl)-1H-pyrazol-1-yl)phenylsulfonamido)-2,8,10-trioxa-5,6,7-triazatridec-6-ene 6-oxide] | 4959.1 pg/mL | 5.6 mL | did not show any effect | did not show any effect | – | –
Cc1ccc(-c2cc(C(F)(F)F)nn2-c2ccc(S(N)(=O)=O)cc2)cc1 [Celecoxib, 4-(5-(p-Tolyl)-3-(trifluoromethyl)-1H-pyrazol-1-yl)benzenesulfonamide, reference compound] | 907.1 pg/mL | 4.6 mL | – | – | 19% | 80%
